For data set [1] the following is noted: remaining non-/partial responder patients.
Data set [2] is described as follows: Cohort of patients starting azathioprine therapy: clinical response, side-effects and association with XDH, MOCOS and AOX SNP genotype. As to conditions: cohort of 168 patients starting azathioprine therapy.

Consider `Cn1cnc([N+](=O)[O-])c1Sc1ncnc2nc[nH]c12` [azathioprine, 6-(1-methyl-4-nitro-5-imidazolylthio) purine], for which the “difference in TGN levels between wild-type and heterozygous for the AOX SNP” value in data set [1] is given as “no significant difference”. In data set [2], the partial responders was determined as 7 patients and the “patients deemed to have no response to azathioprine” value was found to be 35 patients.

These data come from patent US8168384B2, “Non-thiopurine methyltransferase related effects in 6-mercaptopurine therapy” (Guy's and St. Thomas' NHS Foundation Trust, priority 2007, dated 2012).
